According to ChEMBL document CHEMBL5230122, “Natural products and other inhibitors of F1FO ATP synthase” (Eur J Med Chem, 2020):
Square brackets hold non-standard residues; d marks the D form. Peptide text beside a SMILES is read from it. * marks the point of attachment. X4 = CC(C)C[C@@H](C[N+]1=C2CCCN2CCC1)N*; Pip = O=C(O)[C@@H]1CCCCN1; Iva = CC[C@](C)(N)C(=O)O; Aib = CC(C)(N)C(=O)O; βAla = NCCC(=O)O

What was measured:
[1] = tested on: PANC-1; test: Anticancer activity against human PANC-1 cells assessed as reduction in cell viability by measuring ATP level incubated for 24 hrs by CellTiter-Glo assay; format: functional, cell-based; conditions: PANC-1, 24 h
[2] = tested on: NCI-H292; test: Anticancer activity against human NCI-H292 cells assessed as reduction in cell proliferation incubated for 48 hrs by Calcein AM and Pluronic F-127 staining based fluorescence plate reader analysis; format: functional; conditions: NCI-H292, 48 h
[3] = Inhibition of mitochondrial F0F1-ATPase (unknown origin); parameters: species or system Homo sapiens
[4] = tested on: Huh-7; test: Antitumor activity against human Huh-7 cells assessed as reduction in cell viability incubated for 48 hrs by MTT assay; format: functional, cell-based; conditions: Huh-7, 48 h
[5] = tested on: MCF7; test: Antitumor activity against human MCF7 cells assessed as reduction in cell viability incubated for 48 hrs by MTT assay; format: functional, cell-based; conditions: MCF7, 48 h
[6] = tested on: A549; test: Antitumor activity against human A549 cells assessed as reduction in cell viability incubated for 48 hrs by MTT assay; format: functional, cell-based; conditions: A549, 48 h
[7] = tested on: HCT-116; test: Antitumor activity against human HCT-116 cells assessed as reduction in cell viability incubated for 48 hrs by MTT assay; format: functional, cell-based; conditions: HCT-116, 48 h
[8] = Antitumor activity against mouse RIL-175 cells assessed as reduction in cell viability incubated for 48 hrs by MTT assay; format: functional, cell-based; conditions: RIL-175, 48 h
[9] = tested on: SK-OV-3; test: Cytotoxicity against human SK-OV-3 cells assessed as reduction in cell viability incubated for 72 hrs by WST-8 assay; format: functional, cell-based; conditions: SK-OV-3, 72 h
[10] = tested on: Jurkat; test: Cytotoxicity against human Jurkat cells assessed as reduction in cell viability incubated for 72 hrs by WST-8 assay; format: functional, cell-based
[11] = Cytotoxicity against human ACC-MESO-1 cells assessed as reduction in cell viability incubated for 72 hrs by WST-8 assay; format: functional, cell-based; conditions: ACC-MESO-1, 72 h
[12] = tested on: PaTu 8988t; test: Anticancer activity against human PaTu 8988t cells assessed as reduction in cell viability incubated for 72 hrs by MTT assay; format: functional, cell-based
[13] = tested on: MDA-MB-231; test: Anticancer activity against human MDA-MB-231 cells assessed as reduction in cell viability incubated for 72 hrs by MTT assay; format: functional, cell-based; conditions: MDA-MB-231, 72 h
[14] = tested on: MCF7; test: Anticancer activity against human MCF7 cells assessed as reduction in cell viability incubated for 72 hrs by MTT assay; format: functional, cell-based; conditions: MCF7, 72 h
[15] = tested on: HeLa; test: Anticancer activity against human HeLa cells assessed as reduction in cell viability incubated for 72 hrs by MTT assay; format: functional, cell-based
[16] = tested on: A549; test: Anticancer activity against human A549 cells assessed as reduction in cell viability incubated for 72 hrs by MTT assay; format: functional, cell-based; conditions: A549, 72 h
[17] = tested on: N2a; test: Antiproliferative activity against mouse Neuro2a cells assessed as reduction in cell viability incubated for 48 hrs by MTT assay; format: functional, cell-based
[18] = tested on: NCI-H460; test: Antiproliferative activity against human NCI-H460 cells assessed as reduction in cell viability incubated for 48 hrs by MTT assay; format: functional, cell-based; conditions: NCI-H460, 48 h

Compound CC[C@](C)(NC(=O)[C@H](CC(C)C)NC(=O)[C@H](C)NC(=O)C(C)(C)NC(=O)[C@@H]1CCCCN1C(=O)C(C)(C)NC(=O)C(C)(C)NC(=O)CNC(=O)CCNC(=O)[C@H](CC(C)C)NC(=O)C(C)(C)NC(=O)C(C)(C)NC(=O)[C@@H]1CCCCN1C(=O)C(C)(C)NC(=O)[C@@H]1CCCCN1C(C)=O)C(=O)N[C@@H](CC(C)C)C[N+]1=C2CCCN2CCC1 (Ac-[Pip][Aib][Pip][Aib][Aib]L[βAla]G[Aib][Aib][Pip][Aib]AL[Iva]-X4) has an IC50 [1] of 0.052 µM.

Compound COC[C@@H](C[C@H]1O[C@@](O)([C@H](O)[C@@H]2C[C@H](OC)[C@@H](O)CC/C=C(C)/C=C/[C@@H](O[C@@H]3O[C@@H](C)[C@H](OC)[C@@H](O)[C@@H]3O)[C@H](C)/C=C(C)/C=C(C)/C=C(\C)C(=O)O2)[C@H](C)[C@@H](O)[C@H]1C)O[C@H]1C[C@](C)(O)[C@@H](O[C@H]2C[C@@H](OC)[C@H](O)[C@@H](C)O2)[C@H](C)O1 has an IC50 [2] of 0.032 µM and an IC50 [3] of 0.7 µM.

For CSCC[C@H](NC(=S)[C@@H](NC(=O)C(C)=O)C(C)C)C(=S)N[C@@H](C)C(=O)N[C@@H](C)C(=S)N[C@@H](C)C(=S)N[C@@H](C)C(=O)N[C@H]1C(=O)N[C@@H](C(C)C)C(=O)N[C@@H](C)C(=O)N[C@@H](Cc2ccccc2)C(=O)N[C@@H](C(O)c2cn(C)c[n+]2C)C(=O)N/C=C\SC1C (stereo partly drawn), the IC50 [4] was 0.141 µM, the IC50 [5] was 0.48 µM and the IC50 [6] was 1.16 µM. It also gave an IC50 [7] of 0.176 µM and an IC50 [8] of 0.157 µM.

CC[C@H](C)[C@@H]1NC(=O)[C@H](NC(=O)[C@H](C)NC(=S)[C@H](C)NC(=S)[C@H](C)NC(=S)[C@H](C)NC(=S)[C@H](CCSC)NC(=S)[C@@H](NC(=O)C(C)O)C(C)C)CS/C=C\NC(=O)[C@H]([C@@H](O)c2cn(C)c[n+]2C)NC(=O)[C@H](CC(C)C)NC(=O)[C@H](C)NC1=O (stereo partly drawn) gave an IC50 [9] of 10.8 µM, an IC50 [10] of 5.4 µM and an IC50 [11] of 14.3 µM.

CCC(C)[C@H](NC(=S)[C@@H](NC(=O)C(C)O)C(C)C)C(=O)NCC(=O)N[C@@H](Cc1ccccc1O)C(=S)N[C@@H](C)C(=S)N[C@H](C(=O)N[C@H]1C(=O)N[C@@H]([C@@H](C)CC)C(=O)N[C@@H](C)C(=O)N[C@@H](C(C)C)C(=O)N[C@@H](Cc2cn(C)c[n+]2C)C(=O)N/C=C\SC1C)C(C)C (stereo partly drawn) showed an IC50 [12] of 0.065 µM, an IC50 [13] of 0.072 µM and an IC50 [14] of 0.059 µM. For the same compound, the IC50 [15] was 0.05 µM and the IC50 [16] was 0.048 µM.

CO[C@H]1[C@H](O[C@@H]2C[C@@H]3C/C=C/C(=O)O[C@H](CO)C[C@H](O)[C@@H]4C[C@H](C)[C@H](/C=C\C=C\[C@H](C)C[C@H](C2)O3)O4)O[C@@H](C)[C@H](O)[C@H]1O showed an IC50 [17] of 0.044 µM and an IC50 [18] of 0.012 µM.
